These results are taken from patent EP0357369B1, “The use of asymetric membranes in delivery devices” (priority 1988, dated 1990).

≈ marks a conversion by molar mass, not a printed value. Where two headings read alike, the source gives them in different places.

Data set [1] in a line: Drug solubility in receptor solutions and excipient solutions. The class given is physicochemical.
Data set [2] can be described thus: Osmotic pressure of saturated solutions of drug and excipients. The class given is physicochemical. The following applies: saturated solution of the labelled drug or of drug and the other tablet excipients; also printed as about 3 atm.

For orientation: solubility means how much of the substance goes into solution per volume. On to `COc1cc2nc(N3CCN(C(=O)C4COc5ccccc5O4)CC3)nc(N)c2cc1OC` (centres unmarked) [doxazosin], for which the solubility was ~0.25 mg/mL (≈ 0.554 mM) in data set [1] (aqueous buffer, gastric buffer pH 1.5, read-out: Doxazosin solubility in the gastric buffer); < 0.01 mg/mL in data set [1] (aqueous buffer, intestinal buffer pH 7.5, read-out: Doxazosin solubility in the intestinal buffer); ~10 mg/mL (≈ 22.1 mM) in data set [1] (dextrose solutions adjusted to pH 4 with tartaric acid, read-out: doxazosin solubility in all the dextrose solutions); 10 mg/mL (≈ 22.1 mM) in data set [1] (water, same in lactose and dextrose solutions adjusted to pH 4 with tartaric acid, read-out: doxazosin solubility in water).
Take `COc1cc2c(N)nc(N3CCN(C(=O)OCC(C)(C)O)CC3)nc2c(OC)c1OC` [trimazosin]: the “Trimazosin solubility lower in a saturated calcium lactate solution than in water” value in data set [1] is on record as “about 40%”. The “solubility of trimazosin in the magnesium sulfate solution” value in data set [1] (2.4-wt% magnesium sulfate solution compared with water) is “the same as the trimazosin solubility in water”. The solubility of trimazosin entry in data set [1] (water and 4 wt% magnesium sulfate solution) was “the same in both solutions”. Also, in data set [2], the “osmotic pressure of a saturated solution” value was “about 304 kPa”.
